In patent US20100190747A1, “Fused ring compound and use thereof” (priority 2009, published 2010):

target: T1, delta-5-desaturase (Rattus norvegicus, UniProt Q920R3); test: Inhibitory activity on delta-5-desaturase (rat liver microsomal fraction, 14C-eicosatrienoic acid, TLC); assay type: biochemical; details: test compound at 10 μM, room temperature, 120 minutes
T1 construct: the microsomal fraction of a rat river (10 μl), which had been diluted to 3 mg/ml; from tissue; host or cells: rat liver microsomal fraction
Method: An inhibitory activity of a test compound on delta-5-desaturase was measured according to the method described herein below. To a DMSO solution of the test compound which had been previously prepared, secondary dilution was carried out by using a buffer (300 mM NaH2PO4 [pH 7.4], 450 mM KCl, 30 mM NaF, 9 mM MgCl2, 4.5 mM glutathione [reduced form], 0.3% BSA [fatty acid free, SIGMA]). This diluent compound (10 μl) was added in a 96-well deep well block made of polypropylene, and then the microsomal fraction of a rat river (10 μl), which had been diluted to 3 mg/ml by using a microsome buffer (10 mM Tris-HCl [pH 7.4], 1 mM EDTA, and 250 mM sucrose), was added thereto. The enzyme reaction was initiated by adding 10 μl of 9 mM NADH, 9 mM ATP, 0.9 mM CoA and 10 μCi/ml (8E,11E,14E)-(1-^14C)eicosa-8,11,14-trienoic acid (PerkinElmer Inc.). The enzyme reaction was carried out at room temperature for 120 minutes, and then terminated by addition of 2.5 M NaOH (10 μl). Upon the completion of the reaction, the plate was covered with plate seal and incubated overnight in a dry heater of which temperature was set at 55° C. for saponification. Based on Bligh & Dyer method which had been described in a known document, Canadian Journal of Biochemistry and Physiology (Can. J. Biochem. Physiol.), Vol. 37, page 911, 1959), the solvent extraction of fatty acid was carried out by adding 200 μl of formic acid:methanol:chloroform (1:6:3), keeping the mixture as a single layer for a while, stirring the mixture to a sufficient level, and adding 120 μl of pure water to separate the mixture into two layers. 10 μl of the bottom chloroform layer was spotted on a reverse phase TLC plate (RP-18, 1154230001, Merck Japan, Ltd.) and then developed with acetonitrile:pure water:acetic acid (95:4.5:0.5). The TLC plate obtained after drying was transferred to an Imaging Plate (Fuji Photo Film Co., Ltd.) for more than 5 hours. Detection was carried out by using BAS-5000 (Fuji Photo Film Co., Ltd.). Numerization of thus-obtained image was carried out by using Multi Gauge Ver 2.3 (Fuji Photo Film Co., Ltd.) and an inhibitory ratio (%) of the test compound at 10 μM on delta-5-desaturase was obtained.

T1 sequence (Q920R3 whole entry): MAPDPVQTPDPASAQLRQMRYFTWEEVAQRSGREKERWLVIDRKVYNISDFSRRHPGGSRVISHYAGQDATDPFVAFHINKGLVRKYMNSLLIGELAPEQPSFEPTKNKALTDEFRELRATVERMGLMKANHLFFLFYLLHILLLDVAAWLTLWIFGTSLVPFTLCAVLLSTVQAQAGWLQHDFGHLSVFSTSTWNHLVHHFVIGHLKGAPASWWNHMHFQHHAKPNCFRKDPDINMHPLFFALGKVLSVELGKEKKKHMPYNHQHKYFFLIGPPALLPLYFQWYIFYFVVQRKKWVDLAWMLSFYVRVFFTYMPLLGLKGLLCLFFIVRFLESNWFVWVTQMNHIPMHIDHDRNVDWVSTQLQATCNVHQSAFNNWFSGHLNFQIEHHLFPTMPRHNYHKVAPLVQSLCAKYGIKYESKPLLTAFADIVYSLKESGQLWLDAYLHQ

Inhibition at 10 µM, 102%:
O=c1c2[nH]ccc2nc(SCCCN2CCOCC2)n1-c1ccc(OCC(F)(F)F)cc1 [Example 112, 2-[(3-Morpholin-4-ylpropyl)sulfanyl]-3-[4-(2,2,2-trifluoroethoxy)phenyl]-3,5-dihydro-4H-pyrrolo[3,2-d]pyrimidin-4-one]
CC(C)CSc1nc2c(c(=O)n1-c1ccc(OCC(F)(F)F)cc1)CC(=O)N2 [Example 313, 2-[(2-Methylpropyl)sulfanyl]-3-[4-(2,2,2-trifluoroethoxy)phenyl]-5,7-dihydro-3H-pyrrolo[2,3-d]pyrimidine-4,6-dione]
O=c1c2[nH]ccc2nc(SCCCCO)n1-c1ccc(OCC(F)(F)F)cc1 [Example 119, 2-[(4-Hydroxybutyl)sulfanyl]-3-[4-(2,2,2-trifluoroethoxy)phenyl]-3,5-dihydro-4H-pyrrolo[3,2-d]pyrimidin-4-one]

Inhibition at 10 µM, 94%:
CCOc1nc2c(c(=O)n1-c1ccc(OCC(F)(F)C(F)(F)F)cc1)CC(=O)N2 [Example 277, 2-Ethoxy-3-[4-(2,2,3,3,3-pentafluoropropoxy)phenyl]-5,7-dihydro-3H-pyrrolo[2,3-d]pyrimidine-4,6-dione]

Inhibition at 10 µM, 97%:
CCOc1ccc(-n2c(SCCCCC(=O)NCCC#N)nc3cc[nH]c3c2=O)cc1 [Example 65, N-(2-cyanoethyl)-5-{[3-(4-ethoxyphenyl)-4-oxo-4,5-dihydro-3H-pyrrolo[3,2-d]pyrimidin-2-yl]sulfanyl}pentanamide]

Inhibition at 10 µM, 101%:
O=c1c2cc[nH]c2nc(OCC(F)(F)C(F)(F)F)n1-c1ccc(OCC(F)(F)F)cc1 [Example 239, 2-(2,2,3,3,3-Pentafluoropropoxy)-3-[4-(2,2,2-trifluoroethoxy)phenyl]-3,7-dihydro-4H-pyrrolo[2,3-d]pyrimidin-4-one]
CCCCOc1nc2[nH]ccc2c(=O)n1-c1ccc(OCC(F)(F)F)cc1 [Example 222, 2-Butoxy-3-[4-(2,2,2-trifluoroethoxy)phenyl]-3,7-dihydro-4H-pyrrolo[2,3-d]pyrimidin-4-one]
O=c1c2[nH]ccc2nc(SCCCO)n1-c1ccc(OCC(F)(F)F)cc1 [Example 116, 2-[(3-Hydroxypropyl)sulfanyl]-3-[4-(2,2,2-trifluoroethoxy)phenyl]-3,5-dihydro-4H-pyrrolo[3,2-d]pyrimidin-4-one]
CC(C)S(=O)(=O)CCCSc1nc2cc[nH]c2c(=O)n1-c1ccc(OCC2CC2)cc1 [Example 164, 3-[4-(Cyclopropylmethoxy)phenyl]-2-({3-[(1-methylethyl)sulfonyl]propyl}sulfanyl)-3,5-dihydro-4H-pyrrolo[3,2-d]pyrimidin-4-one]
Cn1ccc2c(=O)n(-c3ccc(OCC(F)(F)F)cc3)c(SCCCC(=O)NCCC#N)nc21 [Example 195]
O=C1Cc2c(nc(SCCC3CC3)n(-c3ccc(OCC(F)(F)F)cc3)c2=O)N1 [Example 329, 2-[(2-Cyclopropylethyl)sulfanyl]-3-[4-(2,2,2-trifluoroethoxy)phenyl]-5,7-dihydro-3H-pyrrolo[2,3-d]pyrimidine-4,6-dione]
CC1(COc2ccc(-n3c(SCCCC(=O)NCCC#N)nc4cc[nH]c4c3=O)cc2)CC1 [Example 93, N-(2-cyanoethyl)-4-[(3-{4-[(1-methylcyclopropyl)methoxy]phenyl}-4-oxo-4,5-dihydro-3H-pyrrolo[3,2-d]pyrimidin-2-yl)sulfanyl]butanamide]

Inhibition at 10 µM, 104%:
O=C1Cc2c(nc(OCCC3CC3)n(-c3ccc(OCC(F)(F)F)cc3)c2=O)N1 [Example 319, 2-(2-Cyclopropylethoxy)-3-[4-(2,2,2-trifluoroethoxy)phenyl]-5,7-dihydro-3H-pyrrolo[2,3-d]pyrimidine-4,6-dione]

Inhibition at 10 µM, 99%:
CC(CCSc1nc2cc[nH]c2c(=O)n1-c1ccc(OCC(F)(F)F)cc1)C(=O)NCCC#N (stereo not drawn) [Example 85, N-(2-cyanoethyl)-2-methyl-4-({4-oxo-3-[4-(2,2,2-trifluoroethoxy)phenyl]-4,5-dihydro-3H-pyrrolo[3,2-d]pyrimidin-2-yl)sulfanyl)butanamide]
O=C1Cc2c(nc(SC3CC3)n(-c3ccc(OCC(F)(F)F)cc3)c2=O)N1 [Example 291, 2-(Cyclopropylsulfanyl)-3-[4-(2,2,2-trifluoroethoxy)phenyl]-5,7-dihydro-3H-pyrrolo[2,3-d]pyrimidine-4,6-dione]
N#CCCCCSc1nc2cc[nH]c2c(=O)n1-c1ccc(OCC(F)(F)F)cc1 [Example 87, 5-({4-Oxo-3-[4-(2,2,2-trifluoroethoxy)phenyl]-4,5-dihydro-3H-pyrrolo[3,2-d]pyrimidin-2-yl}sulfanyl)pentanenitrile]
CCOCCOCCSc1nc2cc[nH]c2c(=O)n1-c1ccc(OCC2CC2)c(Cl)c1 [Example 163, 3-[3-Chloro-4-(cyclopropylmethoxy)phenyl]-2-{[2-(2-ethoxyethoxy)ethyl]sulfanyl}-3,5-dihydro-4H-pyrrolo[3,2-d]pyrimidin-4-one]
CC(C)OCCCSc1nc2cc[nH]c2c(=O)n1-c1ccc(OCC(F)(F)F)cc1 [Example 137, 2-{[3-(1-Methylethoxy)propyl]sulfanyl}-3-[4-(2,2,2-trifluoroethoxy)phenyl]-3,5-dihydro-4H-pyrrolo[3,2-d]pyrimidin-4-one]
CCSc1nc2c(c(=O)n1-c1ccc(OCC(F)(F)C(F)(F)F)cc1)CC(=O)N2 [Example 269, 2-(Ethylsulfanyl)-3-[4-(2,2,3,3,3-pentafluoropropoxy)phenyl]-5,7-dihydro-3H-pyrrolo[2,3-d]pyrimidine-4,6-dione]
O=c1c2cc[nH]c2nc(OCC(F)(F)F)n1-c1ccc(OCC(F)(F)F)cc1 [Example 227, 2-(2,2,2-Trifluoroethoxy)-3-[4-(2,2,2-trifluoroethoxy)phenyl]-3,7-dihydro-4H-pyrrolo[2,3-d]pyrimidin-4-one]

Inhibition at 10 µM, 100%:
CCSc1nc2[nH]ccc2c(=O)n1-c1ccc(OCC(F)(F)C(F)(F)F)cc1 [Example 249, 2-(Ethylsulfanyl)-3-[4-(2,2,3,3,3-pentafluoropropoxy)phenyl]-3,7-dihydro-4H-pyrrolo[2,3-d]pyrimidin-4-one]
N#CC1(CSc2nc3c(c(=O)n2-c2ccc(OCC(F)(F)F)cc2)CC(=O)N3)CC1 [Example 339, 1-[({4,6-Dioxo-3-[4-(2,2,2-trifluoroethoxy)phenyl]-4,5,6,7-tetrahydro-3H-pyrrolo[2,3-d]pyrimidin-2-yl}sulfanyl)methyl]cyclopropanecarbonitrile]
O=C(CCCSc1nc2cc[nH]c2c(=O)n1-c1ccc(OCC(F)(F)F)cc1)N1CCC(O)CC1 [Example 98, 2-{[4-(4-Hydroxypiperidin-1-yl)-4-oxobutyl]sulfanyl}-3-[4-(2,2,2-trifluoroethoxy)phenyl]-3,5-dihydro-4H-pyrrolo[3,2-d]pyrimidin-4-one]

same assay, conditions: test compound at 10 μM, room temperature, 120 minutes, 10 µM

Inhibitory activity at 10 μM (%), 101%:
O=c1c2cc[nH]c2nc(OCC2CC2)n1-c1ccc(OCC(F)(F)F)cc1 [Example 289, 2-(Cyclopropylmethoxy)-3-[4-(2,2,2-trifluoroethoxy)phenyl]-3,7-dihydro-4H-pyrrolo[2,3-d]pyrimidin-4-one]
